Tests used:
PI3K signaling pathway = conditions: cell lines in vitro and human xenograft tumor tissue in vivo; cited from earlier work
[1] = test system: human xenograft tumor models; conditions: multiple human xenograft tumor models; cited from earlier work
[2] = biological target: PI3K (phosphatidylinositol 3-kinase) (Homo sapiens, UniProt P42336); conditions: cited from earlier work
[3] = stability comparison of polymorphic forms; type: physicochemical; conditions: solid state, polymorphic forms of Compound (I)

Sequence of PI3K (phosphatidylinositol 3-kinase) (P42336 whole entry): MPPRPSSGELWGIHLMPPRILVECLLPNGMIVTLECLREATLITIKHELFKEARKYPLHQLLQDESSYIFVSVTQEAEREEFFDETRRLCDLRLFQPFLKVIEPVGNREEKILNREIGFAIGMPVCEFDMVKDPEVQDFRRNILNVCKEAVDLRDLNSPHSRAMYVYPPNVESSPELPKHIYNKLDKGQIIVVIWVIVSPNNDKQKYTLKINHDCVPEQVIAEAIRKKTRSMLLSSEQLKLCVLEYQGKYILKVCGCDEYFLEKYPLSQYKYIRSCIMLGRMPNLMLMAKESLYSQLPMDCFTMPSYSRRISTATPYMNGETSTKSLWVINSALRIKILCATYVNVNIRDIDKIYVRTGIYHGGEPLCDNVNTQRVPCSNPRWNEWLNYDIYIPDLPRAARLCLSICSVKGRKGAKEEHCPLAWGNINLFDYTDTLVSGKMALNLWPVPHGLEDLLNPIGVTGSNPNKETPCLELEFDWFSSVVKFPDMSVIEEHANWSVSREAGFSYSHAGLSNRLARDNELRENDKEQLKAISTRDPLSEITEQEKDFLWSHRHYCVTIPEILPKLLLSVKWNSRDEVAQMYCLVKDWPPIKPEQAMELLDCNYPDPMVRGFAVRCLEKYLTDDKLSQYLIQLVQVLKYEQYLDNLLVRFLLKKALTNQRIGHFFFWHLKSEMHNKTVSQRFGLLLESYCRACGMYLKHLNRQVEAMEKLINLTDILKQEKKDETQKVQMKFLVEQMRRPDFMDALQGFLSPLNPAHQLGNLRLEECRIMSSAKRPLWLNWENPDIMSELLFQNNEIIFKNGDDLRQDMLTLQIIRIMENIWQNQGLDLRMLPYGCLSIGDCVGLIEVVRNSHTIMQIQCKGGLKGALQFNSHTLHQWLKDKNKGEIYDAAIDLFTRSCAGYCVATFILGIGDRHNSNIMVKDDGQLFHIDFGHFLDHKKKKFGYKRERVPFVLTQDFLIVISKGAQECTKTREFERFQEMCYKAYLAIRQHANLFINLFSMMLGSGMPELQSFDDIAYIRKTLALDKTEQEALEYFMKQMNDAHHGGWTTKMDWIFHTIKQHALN
Sequence of PI3K (phosphatidylinositol 3-kinase) (P27986 whole entry partner): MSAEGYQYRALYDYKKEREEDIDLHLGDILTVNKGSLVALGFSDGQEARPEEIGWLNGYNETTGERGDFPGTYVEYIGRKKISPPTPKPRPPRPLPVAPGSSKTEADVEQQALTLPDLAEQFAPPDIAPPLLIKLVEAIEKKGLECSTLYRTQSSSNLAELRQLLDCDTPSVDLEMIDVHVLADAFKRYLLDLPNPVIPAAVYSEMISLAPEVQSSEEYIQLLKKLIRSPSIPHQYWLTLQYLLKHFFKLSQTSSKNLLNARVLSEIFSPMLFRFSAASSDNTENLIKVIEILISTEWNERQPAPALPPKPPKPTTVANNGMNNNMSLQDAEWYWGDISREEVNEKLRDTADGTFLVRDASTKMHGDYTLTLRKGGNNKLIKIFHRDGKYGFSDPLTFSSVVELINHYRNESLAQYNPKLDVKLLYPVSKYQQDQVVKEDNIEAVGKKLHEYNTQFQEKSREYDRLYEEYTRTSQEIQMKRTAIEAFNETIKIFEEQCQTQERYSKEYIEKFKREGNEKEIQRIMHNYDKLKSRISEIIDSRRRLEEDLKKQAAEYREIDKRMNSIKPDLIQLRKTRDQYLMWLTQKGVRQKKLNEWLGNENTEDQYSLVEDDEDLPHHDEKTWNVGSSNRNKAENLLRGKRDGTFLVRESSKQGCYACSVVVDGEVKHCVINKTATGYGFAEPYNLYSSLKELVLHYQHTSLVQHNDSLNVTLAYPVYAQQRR

stability among the polymorphic forms evaluated [3]	Structure (SMILES)	phosphorylation of multiple downstream components of the PI3K signaling pathway (PI3K signaling pathway)	tumor growth in human xenograft tumor models [1]	inhibition of PI3K [2]
	COc1ccc(Cl)c(Nc2nc3ccccc3[nH]/c2=N\S(=O)(=O)c2cccc(NC(=O)C(C)(C)N)c2)c1 [Compound (I), N-(3-{[(2Z)-3-[(2-chloro-5-methoxyphenyl)amino]quinoxalin-2(1H)-ylidene]sulfamoyl}phenyl)-2-methylalaninamide]	inhibits phosphorylation	tumor growth inhibition and tumor regression	potent and selective inhibitor
most stable polymorphic form	COc1ccc(Cl)c(Nc2nc3ccccc3nc2NS(=O)(=O)c2cccc(NC(=O)C(C)(C)N)c2)c1 [Polymorph E, N-(3-{[(2Z)-3-[(2-chloro-5-methoxyphenyl)amino]quinoxalin-2(1H)-ylidene]sulfamoyl}phenyl)-2-methylalaninamide]			

Reference: patent US9364475B2, “Tablet formulation of a phosphatidylinositol 3-kinase inhibitor” (Sanofi, priority 2012, dated 2016)
